Counter-ions that a name gives are not always drawn.

One assay deals with T1, Serine Palmitoyl Transferase (SPT); microsomes from HEK 293 cells stably transfected with human LCB2 subunit of SPT (Homo sapiens, UniProt O15270).
T1 construct: expressed in transfected cells; host or cells: HEK 293 cells stably transfected with LCB2; microsomal fraction
T1 sequence (O15270 1-562): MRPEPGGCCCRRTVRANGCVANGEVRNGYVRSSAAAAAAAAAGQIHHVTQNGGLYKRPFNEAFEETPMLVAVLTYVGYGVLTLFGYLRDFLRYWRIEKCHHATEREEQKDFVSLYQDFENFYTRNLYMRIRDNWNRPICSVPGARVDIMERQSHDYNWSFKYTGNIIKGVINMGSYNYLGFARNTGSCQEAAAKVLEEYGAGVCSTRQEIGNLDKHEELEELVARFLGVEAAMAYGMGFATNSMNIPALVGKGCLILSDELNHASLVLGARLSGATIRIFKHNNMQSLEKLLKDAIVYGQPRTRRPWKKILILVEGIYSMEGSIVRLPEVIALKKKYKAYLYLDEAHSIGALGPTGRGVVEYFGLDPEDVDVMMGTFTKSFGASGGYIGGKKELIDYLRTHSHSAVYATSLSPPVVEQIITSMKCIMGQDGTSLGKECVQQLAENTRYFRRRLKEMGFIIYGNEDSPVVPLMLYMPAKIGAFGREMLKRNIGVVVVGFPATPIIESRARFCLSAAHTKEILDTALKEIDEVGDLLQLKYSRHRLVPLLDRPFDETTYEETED
T1 sequence (O15269 1-473 partner): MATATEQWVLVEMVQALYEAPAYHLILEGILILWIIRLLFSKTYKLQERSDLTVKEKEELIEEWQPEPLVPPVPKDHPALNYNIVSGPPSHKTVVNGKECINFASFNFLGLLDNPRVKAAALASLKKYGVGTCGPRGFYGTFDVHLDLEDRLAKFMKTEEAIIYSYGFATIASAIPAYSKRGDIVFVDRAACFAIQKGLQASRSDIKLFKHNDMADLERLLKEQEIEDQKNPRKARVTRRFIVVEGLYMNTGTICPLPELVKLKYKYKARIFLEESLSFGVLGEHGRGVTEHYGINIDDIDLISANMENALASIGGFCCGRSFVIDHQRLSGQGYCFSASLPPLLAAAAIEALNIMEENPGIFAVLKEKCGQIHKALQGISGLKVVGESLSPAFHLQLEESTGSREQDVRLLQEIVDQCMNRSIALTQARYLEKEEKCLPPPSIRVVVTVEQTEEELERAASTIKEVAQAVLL
T1 sequence (Q969W0 1-71 partner): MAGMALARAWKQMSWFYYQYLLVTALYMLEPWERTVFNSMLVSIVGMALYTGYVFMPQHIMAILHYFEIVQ
Briefly: SPT flashplate assay. It is filed as biochemical. As to conditions: SPTISF IC50 (nM).
The IC50 is the midpoint of a concentration-inhibition curve. `CNC(=O)c1cc2c(cc1F)N(C1CCN(CC(=O)N3CCC(C)(C)CC3)CC1)C(=O)C2` [Example 22, 1-[2-(4,4-dimethylpiperidin-1-yl)-2-oxoethyl]-4-{6-fluoro-5-[(methylamino)carbonyl]-2-oxo-2,3-dihydro-1H-indol-1-yl}piperidinium chloride] came in with an IC50 of 10.6 nM.

`CNC(=O)c1ccc2c(c1)CC(=O)N2C1CCN(CC(=O)N2CCC3(CC2)CC3)CC1` [Example 25, 1-[2-6-azaspiro[2.5]oct-6-yl)-2-oxoethyl]-4-{5-[(methylamino)carbonyl]-2-oxo-2,3-dihydro-1H-indol-1-yl}piperidinium chloride] registered an IC50 of 2.64 nM. For the molecule `CNC(=O)c1ccc2c(c1)CC(=O)N2C1CCN(CC(=O)N2CCC(C)(C)CC2)CC1` [Example 23, 1-[2-(4,4-dimethylpiperidin-1-yl)-2-oxoethyl]-4-{5-[(methylamino)carbonyl]-2-oxo-2,3-dihydro-1H-indol-1-yl}piperidinium chloride], the 50% inhibitory concentration (IC50) is 8.4 nM. Same read-out and setting: to `CNC(=O)c1cc2c(cc1F)N(C1CCN(CC(=O)N3C[C@H]4CCC[C@H]4C3)CC1)C(=O)C2` [Example 21, 4-{6-fluoro-5-[(methylamino)carbonyl]-2-oxo-2,3-dihydro-1H-indol-1-yl}-1-{2-[(3aR,6aS)-hexahydrocyclopenta[c]pyrrol-2(1H)-yl]-2-oxoethyl}piperidinium chloride] belongs 14.6 nM; to `CNC(=O)c1ccc2c(c1)CC(=O)N2C1CCN(CC(=O)N2CCC(C)(OC)CC2)CC1` [Example 19, 1-[2-(4-methoxy-4-methylpiperidin-1-yl)-2-oxoethyl]-4-{5-[(methylamino)carbonyl]-2-oxo-2,3-dihydro-1H-indol-1-yl}piperidinium chloride], 18.7 nM; to `CNC(=O)c1ccc2c(c1)CC(=O)N2C1CCN(CC(=O)N2C[C@H]3CCC[C@H]3C2)CC1` [Example 20, 1-{2-[(3aR,6aS)-hexahydrocyclopenta[c]pyrrol-2(1H)-yl]-2-oxoethyl}-4-{5-[(methylamino)carbonyl]-2-oxo-2,3-dihydro-1H-indol-1-yl}piperidinium hydrogen sulfate], 11.4 nM.

The assay is the same for the next values; noted with them: microsomes of HEK 293 LCB2 cells, 3H-serine and palmitoyl CoA, phospholipid coated flashplate, 18-24 hours at room temperature; read-out: SPTISF IC50.
For `CNC(=O)c1cc2[nH]c(=O)n(C3CCN(CC(=O)N4CCC5(CC4)CC5)CC3)c2cc1F` [Example 28, 1-{1-[2-(6-azaspiro[2.5]oct-6-yl)-2-oxoethyl]piperidin-4-yl}-6-fluoro-N-methyl-2-oxo-2,3-dihydro-1H-benzimidazole-5-carboxamide], the IC50 stood at 12.9 nM.

On to `COC1(C)CCN(C(=O)CN2CCC(n3c(=O)[nH]c4cc(C(C)=O)ccc43)CC2)CC1` [Example 55, 5-acetyl-1-{1-[2-(4-methoxy-4-methylpiperidin-1-yl)-2-oxoethyl]piperidin-4-yl}-1,3-dihydro-2H-benzimidazol-2-one; HCl salt], for which the IC50 turned out to be 71 nM.

`CNC(=O)c1cc2[nH]c(=O)n(C3CCN(CC(=O)N4CC5CCC(CC5)C4)CC3)c2cc1F` [Example 30, 1-{1-[2-(3-azabicyclo[3.2.2]non-3-yl)-2-oxoethyl]piperidin-4-yl}-6-fluoro-N-methyl-2-oxo-2,3-dihydro-1H-benzimidazole-5-carboxamide]: the IC50 was found to be 14.5 nM. Same read-out and setting: the value for `CNC(=O)c1cc2[nH]c(=O)n(C3CCN(CC(=O)C4CCC(C)CC4)CC3)c2cc1F` (stereo not drawn) [Example 13, 6-fluoro-N-methyl-1-{1-[2-(4-methylcyclohexyl)-2-oxoethyl]piperidin-4-yl}-2-oxo-2,3-dihydro-1H-benzimidazole-5-carboxamide] was 6 nM; that for `CNC(=O)c1cc2[nH]c(=O)n(C3CCN(CC(=O)N4CCC(C)(C)CC4)CC3)c2cc1F` [Example 26, 1-[2-(4,4-dimethylpiperidin-1-yl)-2-oxoethyl]-4-{6-fluoro-5-[(methylamino)carbonyl]-2-oxo-2,3-dihydro-1H-benzimidazol-1-yl}piperidinium chloride] was 7.5 nM. As for `CC(C)(C)C1CCC(C(=O)CN2CCC(n3c(=O)[nH]c4cc(S(C)(=O)=O)ccc43)CC2)CC1` (stereo not drawn) [Example 45, 1-{1-[2-(4-tert-butylcyclohexyl)-2-oxoethyl]piperidin-4-yl}-5-(methylsulfonyl)-1,3-dihydro-2H-benzimidazol-2-one], the IC50 was found to be 333 nM. The same measure, in the same setting: the value for `CNC(=O)c1cc2[nH]c(=O)n(C3CCN(CC(=O)C4CCC(F)(F)CC4)CC3)c2cc1F` [Example 12, 1-{1-[2-(4,4-difluorocyclohexyl)-2-oxoethyl]piperidin-4-yl}-6-fluoro-N-methyl-2-oxo-2,3-dihydro-1H-benzimidazole-5-carboxamide] was 5.3 nM; that for `CNC(=O)c1cc2[nH]c(=O)n(C3CCN(CC(=O)C4CCC(C(F)(F)F)CC4)CC3)c2cc1F` (stereo not drawn) [Example 15, 6-fluoro-N-methyl-2-oxo-1-(1-{2-oxo-2-[4(trifluoromethyl)cyclohexyl]ethyl}piperidin-4-yl)-2,3-dihydro-1H-benzimidazole-5-carboxamide] was 9.5 nM. For the molecule `CNC(=O)c1cc2[nH]c(=O)n(C3CCN(CC(=O)C4CCC(C(C)(C)C)CC4)CC3)c2cc1F` (stereo not drawn) [Example 14, 1-{1-[2-(4-tert-butylcyclohexyl)-2-oxoethyl]piperidin-4-yl}-6-fluoro-N-methyl-2-oxo-2,3-dihydro-1H-benzimidazole-5-carboxamide], the IC50 was 106 nM. On the same count and under the same terms, to `CNC(=O)c1cc2[nH]c(=O)n(C3CC4CCC(C3)N4CC(=O)N3CCC(C)(OC)CC3)c2cc1F` (stereo not drawn) [Example 49, 6-fluoro-1-{8-[2-(4-methoxy-4-methylpiperidin-1-yl)-2-oxoethyl]-8-azabicyclo[3.2.1]oct-3-yl}-N-methyl-2-oxo-2,3-dihydro-1H-benzimidazole-5-carboxamide trifluloroacetate] belongs 165 nM. Regarding `CC1(C(=O)CN2CCC(n3c(=O)[nH]c4cc(S(C)(=O)=O)ccc43)CC2)CCCCC1` [Example 48, 1-{1-[2-(1-methylcyclohexyl)-2-oxoethyl]piperidin-4-yl}-5-(methylsulfonyl)-1,3-dihydro-2H-benzimidazol-2-one], the IC50 came to 4400 nM. Same read-out and setting: the value for `CC1CCC(C(=O)CN2CCC(n3c(=O)[nH]c4cc(S(C)(=O)=O)ccc43)CC2)CC1` (stereo not drawn) [Example 42, 1-{1-[2-(4-methylcyclohexyl)-2-oxoethyl]piperidin-4-yl}-5-(methylsulfonyl)-1,3-dihydro-2H-benzimidazol-2-one] was 59 nM; that for `COC1CCC(C(=O)CN2CCC(n3c(=O)[nH]c4cc(S(C)(=O)=O)ccc43)CC2)CC1` (stereo not drawn) [Example 43, 1-{1-[2-(4-methoxycyclohexyl)-2-oxoethyl]piperidin-4-yl}-5-(methylsulfonyl)-1,3-dihydro-2H-benzimidazol-2-one] was 301 nM. Consider `CNC(=O)c1cc2[nH]c(=O)n(C3CCN(CC(=O)N4C[C@H]5CCC[C@H]5C4)CC3)c2cc1F` [Example 31, 6-fluoro-1-(1-{2-[(3aR,6aS)-hexahydrocyclopenta[c]pyrrol-2(1H)-yl]-2-oxoethyl}piperidin-4-yl)-N-methyl-2-oxo-2,3-dihydro-1H-benzimidazole-5-carboxamide], for which the IC50 stood at 14.7 nM. Still for that read-out and setting: the value for `COC1(C)CCC(C(=O)CN2CCC(n3c(=O)[nH]c4cc(S(C)(=O)=O)ccc43)CC2)CC1` (stereo not drawn) [Example 47, 1-{1-[2-(4-methoxy-4-methylcyclohexyl)-2-oxoethyl]piperidin-4-yl}-5-(methylsulfonyl)-1,3-dihydro-2H-benzimidazol-2-one] was 508 nM. For the molecule `CCC1(C)CCN(C(=O)CN2CCC(n3c(=O)[nH]c4cc(C(=O)NC)c(F)cc43)CC2)CC1` [Example 27, 1-{1-[2-(4-ethyl-4-methylpiperidin-1-yl)-2-oxoethyl]piperidin-4-yl}-6-fluoro-N-methyl-2-oxo-2,3-dihydro-1H-benzimidazole-5-carboxamide], the half-maximal inhibitory concentration (IC50) turned out to be 6 nM.

Turning to `CNC(=O)c1cc2[nH]c(=O)n(C3CCN(CC(=O)C4CCCCC4)CC3)c2cc1F` [Example 11, 1-[1-(2-cyclohexyl-2-oxoethyl)piperidin-4-yl]-6-fluoro-N-methyl-2-oxo-2,3-dihydro-1H-benzimidazole-5-carboxamide], the IC50 was determined as 63 nM. On to `CS(=O)(=O)c1ccc2c(c1)[nH]c(=O)n2C1CCN(CC(=O)C2CCC(C(F)(F)F)CC2)CC1` (stereo not drawn) [Example 44, 1-{1-[2-(4-trifluoromethylcyclohexyl)-2-oxoethyl]piperidin-4-yl}-5-(methylsulfonyl)-1,3-dihydro-2H-benzimidazol-2-one], for which the IC50 turned out to be 51.7 nM.

For the origin of these results see US20080287479A1, “INHIBITORS OF SERINE PALMITOYLTRANSFERASE” (Pfizer Inc, priority 2006, published 2008).
